Each structure is given as a SMILES string. The source made the active and inactive calls. Where only a bound is given, the exact number is not on record here.

One test deals with J774.A1. Description: Confirmation of image-based Screening Assay for Inhibitors of Phagocytosis. [Related pubchem assays (depositor defined):AID1029, AID1643]. It is filed as functional, cell-based. The conditions noted are these: Mus musculus.
Test [1] concerns the target Melanin-concentrating hormone receptor 1 (Homo sapiens, UniProt Q99705). As to the kind of experiment: Late-stage fluorescence-based counterscreen for antagonists of the G-protein coupled receptor 7 (GPR7): cell-based dose response assay to identify antagonists of the melanin-concentrating hormone receptor 1 (MCHR1). [Related pubchem assays (depositor defined):AID1861, AID1880, AID1952, AID2148, AID2251, AID2257, AID485339]. It counts as functional.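 Note: stimulated with 30 nM MCH peptide agonist.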

Test [2] addresses Neuropeptides B/W receptor type 1 (Homo sapiens, UniProt P48145). Description: GPR7 antagonist potency, late-stage follow-up, cell-based, fluorescence, dose response (AID 463251). It is filed as functional.
Test [3] deals with T1, Intestinal-type alkaline phosphatase (Homo sapiens, UniProt P09923). Description: human intestinal alkaline phosphatase activators, dose response, biochemical, luminescence, uHTS hits (AID 463120). It is filed as functional.
T1 sequence (P09923 whole entry): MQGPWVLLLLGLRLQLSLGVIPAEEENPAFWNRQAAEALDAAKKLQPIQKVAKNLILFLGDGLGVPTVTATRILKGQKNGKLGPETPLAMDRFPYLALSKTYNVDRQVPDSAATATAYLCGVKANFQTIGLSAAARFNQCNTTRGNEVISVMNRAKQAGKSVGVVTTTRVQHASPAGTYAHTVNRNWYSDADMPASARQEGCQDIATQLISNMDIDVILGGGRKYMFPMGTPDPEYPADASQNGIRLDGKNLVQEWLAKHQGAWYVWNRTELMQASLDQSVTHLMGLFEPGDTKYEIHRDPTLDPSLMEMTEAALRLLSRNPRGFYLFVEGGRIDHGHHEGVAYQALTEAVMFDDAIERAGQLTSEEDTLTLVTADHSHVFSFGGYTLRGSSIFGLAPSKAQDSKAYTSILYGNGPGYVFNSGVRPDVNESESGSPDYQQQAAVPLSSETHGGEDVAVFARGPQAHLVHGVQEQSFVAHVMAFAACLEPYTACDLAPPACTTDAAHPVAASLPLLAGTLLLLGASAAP
The target in test [4] is T2, Alkaline phosphatase, tissue-nonspecific isozyme (Homo sapiens, UniProt P05186).
T2 sequence (P05186 whole entry): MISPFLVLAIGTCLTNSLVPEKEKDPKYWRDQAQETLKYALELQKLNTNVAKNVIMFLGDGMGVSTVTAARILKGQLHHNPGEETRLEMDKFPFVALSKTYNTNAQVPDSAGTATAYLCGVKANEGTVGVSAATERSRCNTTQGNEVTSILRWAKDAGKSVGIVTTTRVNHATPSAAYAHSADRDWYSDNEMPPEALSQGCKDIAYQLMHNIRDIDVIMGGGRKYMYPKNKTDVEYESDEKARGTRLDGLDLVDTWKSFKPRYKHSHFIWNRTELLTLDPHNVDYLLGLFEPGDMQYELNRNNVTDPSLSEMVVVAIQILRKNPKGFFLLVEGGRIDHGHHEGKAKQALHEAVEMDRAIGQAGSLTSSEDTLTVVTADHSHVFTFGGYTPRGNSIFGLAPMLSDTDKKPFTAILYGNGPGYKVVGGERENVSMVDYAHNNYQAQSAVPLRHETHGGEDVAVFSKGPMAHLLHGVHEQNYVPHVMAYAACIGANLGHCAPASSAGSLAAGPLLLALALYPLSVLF
Description: TNAP enzyme activators, dose response, selectivity assay for human IAP activator project, biochemical, TNAP isozyme, human IAP uHTS hits (AID 488886).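 Note: potency of compounds raising TNAP activity as a selectivity check on IAP activators.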 It is filed as functional.

Test [5] addresses T1, Intestinal-type alkaline phosphatase. As to the kind of experiment: human IAP activators, dose response, biochemical, luminescent, uHTS hits, set 2 (AID 488817).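 Note: potency of activators that raise enzyme activity.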 It counts as functional.
Test [6] deals with Intestinal-type alkaline phosphatase (Mus musculus, UniProt P24822). Description: PubChem AID 488875. It is filed as functional.
Sequence of Intestinal-type alkaline phosphatase (Mus musculus, UniProt P24822) (P24822 whole entry): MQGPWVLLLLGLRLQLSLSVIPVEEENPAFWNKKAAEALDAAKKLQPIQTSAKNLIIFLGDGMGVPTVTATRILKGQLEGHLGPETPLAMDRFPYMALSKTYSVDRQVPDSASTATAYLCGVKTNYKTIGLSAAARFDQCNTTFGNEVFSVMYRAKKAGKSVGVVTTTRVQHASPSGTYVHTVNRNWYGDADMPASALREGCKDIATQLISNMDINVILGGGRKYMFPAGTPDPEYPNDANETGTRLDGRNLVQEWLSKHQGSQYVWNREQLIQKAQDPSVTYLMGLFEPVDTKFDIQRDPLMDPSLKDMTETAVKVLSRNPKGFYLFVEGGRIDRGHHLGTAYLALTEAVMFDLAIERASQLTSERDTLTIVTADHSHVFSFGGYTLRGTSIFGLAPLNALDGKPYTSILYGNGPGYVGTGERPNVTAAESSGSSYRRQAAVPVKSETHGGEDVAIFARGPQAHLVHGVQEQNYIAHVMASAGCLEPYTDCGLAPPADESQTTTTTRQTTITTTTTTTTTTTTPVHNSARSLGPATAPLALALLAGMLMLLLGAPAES
Test [7] concerns the target T3, Microphthalmia-associated transcription factor (Homo sapiens, UniProt O75030).
T3 sequence (O75030 whole entry): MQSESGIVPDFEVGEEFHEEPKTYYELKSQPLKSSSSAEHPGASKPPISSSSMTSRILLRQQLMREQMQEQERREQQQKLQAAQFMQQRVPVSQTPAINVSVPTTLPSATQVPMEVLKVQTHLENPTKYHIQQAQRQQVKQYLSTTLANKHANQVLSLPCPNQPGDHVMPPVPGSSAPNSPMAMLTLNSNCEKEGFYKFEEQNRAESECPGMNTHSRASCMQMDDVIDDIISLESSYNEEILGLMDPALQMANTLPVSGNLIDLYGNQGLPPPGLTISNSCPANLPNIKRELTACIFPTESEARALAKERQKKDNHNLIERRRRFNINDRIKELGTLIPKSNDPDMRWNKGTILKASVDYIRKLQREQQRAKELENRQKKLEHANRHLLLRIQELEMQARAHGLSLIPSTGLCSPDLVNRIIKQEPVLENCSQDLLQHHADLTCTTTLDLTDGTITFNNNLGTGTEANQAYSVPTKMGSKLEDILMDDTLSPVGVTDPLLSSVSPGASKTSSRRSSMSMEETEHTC
Description: TRPM1 promoter luciferase signal decrease, dose response, MITF inhibitor project, cell-based, SK-MEL-5, cherry-picked, set 4 (AID 493102). It counts as functional.

The target in test [8] is T3, Microphthalmia-associated transcription factor. As to the kind of experiment: MITF Measured in Cell-Based System Using Plate Reader - 2084-01_Inhibitor_DoseNoFile_CherryPick_Activity_Set2. [Related pubchem assays (depositor defined):AID488944]. It counts as functional.
Test [9] shares this target. As to the kind of experiment: TRPM1 promoter luciferase signal decrease, dose response, MITF inhibitor project, cell-based, SK-MEL-5, cherry-picked, set 3 (AID 493073). It counts as functional.
Test [10] has as its target T4, Eukaryotic translation initiation factor 4H (Homo sapiens, UniProt Q15056). As to the kind of experiment: human eIF4H binding inhibitors, primary screen, translation initiation inhibitor project, biochemical, uHTS, fluorescence polarization (AID 2012). Background: Polarisation of emitted light reports the rotation of a fluorescent probe.
Test [11] concerns the target T5, Polyadenylate-binding protein 1 (Homo sapiens, UniProt P11940). As to the kind of experiment: PABP inhibition in translation initiation, SAR follow-up (AID 435018). It is filed as functional.
Test [12] has as its target T4, Eukaryotic translation initiation factor 4H. Description: eIF4H inhibition in translation initiation, SAR follow-up (AID 435011). It is filed as functional.
Test [13] has as its target T5, Polyadenylate-binding protein 1. Description: PABP poly(A) RNA binding inhibitors, primary screen, biochemical, fluorescence polarization, uHTS (AID 2014).
A short description of test [14]: HEp-2 cell cytotoxicity, dose response, cytotoxicity control for RSV inhibitor project, HTS (AID 2410). It counts as functional. The conditions noted are these: human respiratory syncytial virus.
Test [15] has as its target E3 ubiquitin-protein ligase Mdm2/Protein Mdm4 (Homo sapiens, UniProt O15151+Q00987). As to the kind of experiment: Mdm2-MdmX interaction inhibitors, dose response, luminescence detection (AID 504593). It counts as functional.
Test [16] has as its target Sphingosine 1-phosphate receptor 4 (Homo sapiens, UniProt O95977). As to the kind of experiment: S1P4 receptor agonists, human, late-stage follow-up, cell-based, fluorescence, synthesized compounds (AID 463107). It is filed as functional.
Test [17] deals with T6, Kappa-type opioid receptor (Homo sapiens, UniProt P41145). As to the kind of experiment: SAR analysis of small molecule antagonists of the kappa opioid receptor via a luminescent beta-arrestin assay - Set 3. [Related pubchem assays (depositor defined):AID1777, AID1778, AID1785, AID1786, AID1966, AID2133, AID2136, AID2285, AID2495]. It counts as functional.
T6 sequence (P41145 whole entry): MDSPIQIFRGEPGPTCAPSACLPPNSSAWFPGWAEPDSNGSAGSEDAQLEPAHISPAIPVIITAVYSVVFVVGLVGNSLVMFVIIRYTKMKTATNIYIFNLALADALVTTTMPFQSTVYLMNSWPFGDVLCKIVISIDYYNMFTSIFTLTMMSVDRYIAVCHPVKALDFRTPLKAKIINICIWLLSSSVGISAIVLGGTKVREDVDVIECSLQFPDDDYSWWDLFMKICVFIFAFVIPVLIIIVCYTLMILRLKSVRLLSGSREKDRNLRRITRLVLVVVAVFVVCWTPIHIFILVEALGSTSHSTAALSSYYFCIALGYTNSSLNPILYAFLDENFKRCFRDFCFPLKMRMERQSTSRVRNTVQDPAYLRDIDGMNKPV
In test [18] the target is T6, Kappa-type opioid receptor. Description: SAR analysis of Antagonists of the Kappa Opioid Receptor (KOR) using an Image-Based Assay - Set 4. [Related pubchem assays (depositor defined):AID1777, AID1785]. It counts as functional.
Test [19] has as its target T6, Kappa-type opioid receptor. As to the kind of experiment: SAR analysis of small molecule antagonists of the kappa opioid receptor via a luminescent beta-arrestin assay - Set 6. [Related pubchem assays (depositor defined):AID1777, AID1778, AID1785, AID1786, AID1966, AID2133, AID2136, AID2285]. It counts as functional.
The next test concerns the target Mu-type opioid receptor (Homo sapiens, UniProt P35372). Description: SAR Analysis of Antagonists of the MOR Receptor using an Image-Based Assay - Set 3. [Related pubchem assays (depositor defined):AID1777, AID1785, AID1786, AID1966, AID2133, AID2136, AID2284, AID2285, AID2420]. It counts as functional.
Test [20] addresses Delta-type opioid receptor (Homo sapiens, UniProt P41143). As to the kind of experiment: SAR Analysis of Antagonists of the DOR Receptor using an Image-Based Assay - Set 3. [Related pubchem assays (depositor defined):AID1777, AID1785]. It counts as functional.

T5 sequence (P11940 whole entry): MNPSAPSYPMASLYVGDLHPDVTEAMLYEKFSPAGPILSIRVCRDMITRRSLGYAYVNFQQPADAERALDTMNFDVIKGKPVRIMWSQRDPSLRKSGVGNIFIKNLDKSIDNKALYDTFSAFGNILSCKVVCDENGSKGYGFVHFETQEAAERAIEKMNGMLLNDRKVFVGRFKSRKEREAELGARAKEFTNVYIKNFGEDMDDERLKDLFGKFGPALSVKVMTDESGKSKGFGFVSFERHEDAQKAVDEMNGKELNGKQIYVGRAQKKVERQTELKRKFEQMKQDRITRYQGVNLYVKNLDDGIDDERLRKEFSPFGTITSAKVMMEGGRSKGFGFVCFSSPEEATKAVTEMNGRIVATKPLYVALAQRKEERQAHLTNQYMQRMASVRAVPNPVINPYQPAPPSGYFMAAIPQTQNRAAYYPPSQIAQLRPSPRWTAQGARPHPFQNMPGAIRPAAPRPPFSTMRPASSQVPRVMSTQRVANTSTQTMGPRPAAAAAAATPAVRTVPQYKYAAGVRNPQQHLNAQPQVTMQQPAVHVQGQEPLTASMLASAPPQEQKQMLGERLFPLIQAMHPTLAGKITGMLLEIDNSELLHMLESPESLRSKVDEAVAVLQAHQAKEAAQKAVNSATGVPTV
Sequence of Neuropeptides B/W receptor type 1 (P48145 whole entry): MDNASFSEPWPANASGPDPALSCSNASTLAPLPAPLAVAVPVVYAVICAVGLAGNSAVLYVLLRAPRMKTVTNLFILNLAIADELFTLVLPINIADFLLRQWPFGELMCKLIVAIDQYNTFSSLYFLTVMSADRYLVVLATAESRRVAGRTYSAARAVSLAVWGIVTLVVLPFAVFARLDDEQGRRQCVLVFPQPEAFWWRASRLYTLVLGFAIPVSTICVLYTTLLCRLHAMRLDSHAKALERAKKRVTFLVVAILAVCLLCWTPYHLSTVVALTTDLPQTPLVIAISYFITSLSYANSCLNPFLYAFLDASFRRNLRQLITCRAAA
Sequence of Mu-type opioid receptor (P35372 whole entry): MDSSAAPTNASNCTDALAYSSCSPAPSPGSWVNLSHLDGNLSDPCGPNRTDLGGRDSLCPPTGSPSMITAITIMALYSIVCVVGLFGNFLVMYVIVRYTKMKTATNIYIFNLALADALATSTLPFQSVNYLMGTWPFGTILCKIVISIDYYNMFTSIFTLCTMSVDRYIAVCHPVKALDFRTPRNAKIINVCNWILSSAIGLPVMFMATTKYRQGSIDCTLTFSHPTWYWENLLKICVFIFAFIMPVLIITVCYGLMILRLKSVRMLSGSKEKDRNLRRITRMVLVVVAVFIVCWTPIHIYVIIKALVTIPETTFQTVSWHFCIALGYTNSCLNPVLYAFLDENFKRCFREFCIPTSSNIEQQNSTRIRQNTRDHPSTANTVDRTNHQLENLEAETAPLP
Sequence of Melanin-concentrating hormone receptor 1 (Q99705 whole entry): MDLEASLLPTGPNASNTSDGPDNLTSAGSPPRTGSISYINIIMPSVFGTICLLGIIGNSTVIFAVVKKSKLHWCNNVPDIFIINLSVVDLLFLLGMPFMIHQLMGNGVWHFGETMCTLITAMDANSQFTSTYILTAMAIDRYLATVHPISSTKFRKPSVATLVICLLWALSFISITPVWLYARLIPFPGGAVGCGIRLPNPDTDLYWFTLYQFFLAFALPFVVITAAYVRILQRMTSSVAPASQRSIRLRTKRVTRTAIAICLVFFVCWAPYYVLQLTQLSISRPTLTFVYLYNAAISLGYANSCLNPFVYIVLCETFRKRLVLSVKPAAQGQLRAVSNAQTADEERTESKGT
Sequence of Delta-type opioid receptor (P41143 whole entry): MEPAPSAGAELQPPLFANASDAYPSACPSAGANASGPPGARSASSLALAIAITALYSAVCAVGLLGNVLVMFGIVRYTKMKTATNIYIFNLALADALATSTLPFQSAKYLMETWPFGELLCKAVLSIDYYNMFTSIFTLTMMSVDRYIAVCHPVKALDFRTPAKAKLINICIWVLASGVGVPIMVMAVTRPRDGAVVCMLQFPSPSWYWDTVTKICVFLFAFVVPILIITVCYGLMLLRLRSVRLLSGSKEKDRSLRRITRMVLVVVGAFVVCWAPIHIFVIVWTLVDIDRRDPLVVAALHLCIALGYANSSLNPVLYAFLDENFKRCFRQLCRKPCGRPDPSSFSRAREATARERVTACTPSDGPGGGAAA
Sequence of E3 ubiquitin-protein ligase Mdm2/Protein Mdm4 (Q00987 whole entry): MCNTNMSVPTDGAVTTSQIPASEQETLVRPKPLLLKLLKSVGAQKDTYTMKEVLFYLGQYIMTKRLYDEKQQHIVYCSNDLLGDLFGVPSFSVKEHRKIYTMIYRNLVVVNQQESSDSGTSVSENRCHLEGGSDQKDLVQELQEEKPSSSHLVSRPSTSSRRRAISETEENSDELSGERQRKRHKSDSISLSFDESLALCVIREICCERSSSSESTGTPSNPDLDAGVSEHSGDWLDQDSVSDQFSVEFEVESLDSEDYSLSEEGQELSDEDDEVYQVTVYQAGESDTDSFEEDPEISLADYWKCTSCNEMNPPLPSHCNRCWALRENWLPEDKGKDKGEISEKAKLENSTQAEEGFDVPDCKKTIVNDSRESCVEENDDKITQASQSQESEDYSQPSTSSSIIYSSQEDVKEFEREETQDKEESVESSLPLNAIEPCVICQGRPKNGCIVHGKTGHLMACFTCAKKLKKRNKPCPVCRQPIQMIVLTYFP
Sequence of E3 ubiquitin-protein ligase Mdm2/Protein Mdm4 (O15151 whole entry): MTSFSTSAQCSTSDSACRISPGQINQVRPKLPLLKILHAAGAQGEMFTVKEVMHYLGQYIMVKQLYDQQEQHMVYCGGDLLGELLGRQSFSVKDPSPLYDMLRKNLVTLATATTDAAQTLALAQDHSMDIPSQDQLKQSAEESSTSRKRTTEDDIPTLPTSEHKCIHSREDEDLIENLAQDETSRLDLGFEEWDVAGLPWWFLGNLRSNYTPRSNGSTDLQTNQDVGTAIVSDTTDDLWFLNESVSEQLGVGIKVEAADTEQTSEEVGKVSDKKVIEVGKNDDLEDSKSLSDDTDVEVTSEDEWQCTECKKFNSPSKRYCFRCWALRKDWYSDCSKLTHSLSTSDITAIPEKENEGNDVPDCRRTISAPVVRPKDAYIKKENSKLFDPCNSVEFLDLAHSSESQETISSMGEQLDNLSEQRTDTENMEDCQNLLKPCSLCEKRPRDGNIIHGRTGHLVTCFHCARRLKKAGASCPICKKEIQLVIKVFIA

For `Cc1ccc(Nc2nc(-c3c(C)nc4ccccn34)cs2)cc1`, the IC50 (in general, the concentration that inhibits the measured activity by half) in the test with J774.A1 was < 0.05 µM (inactive).

As for `COc1ccc(Oc2cnn(-c3ccc(C)cc3)c(=O)c2Cl)cc1`, the IC50 is 12.6 µM (inactive) in [1] and 7 µM (active) in test [2].

As for `CC(C)Oc1ccc(C(=O)Nc2nnc[nH]2)cc1`, the EC50 (in general, the concentration that produces a half-maximal response) is 11.4 µM (active) in test [3], 22.9 µM (active) in [4], 33 µM (active) in [5] and > 100 µM (inactive) in test [6].

With `O=C(COC(=O)C1=COCCO1)Nc1c(F)cccc1F`, the AC50 in [7], in test [8] and in test [9] was > 350 µM (inactive) throughout.

For `COc1cccc(CNC(=O)CSc2ccc(-c3ccco3)nn2)c1`, the IC50 is 34.9 µM (active) in test [10], > 100 µM (inactive) in test [11], > 100 µM (inactive) in [12] and > 100 µM (inactive) in [13].

With `Cc1cccn2c(=O)c3cc(C(=O)NCCc4ccccc4)c(=N)n(Cc4ccco4)c3nc12`, in test [14], the CC50 (in general, the concentration giving 50% cytotoxicity) was 15.5 µM (active). In addition, the IC50 in test [15] was 3.68 µM (active).

As for `Cc1ccc(OCCOc2ccc(Oc3ccccc3)cc2)c([N+](=O)[O-])n1`, the EC50 in test [16] was > 50 µM (inactive).

With `COc1ccc(N2CCN(CCCNC(=O)Cn3c(=O)c4cccn4c4c(C)ccnc43)CC2)c(OC)c1`, the IC50 in test [17] was 0.154 µM (active); in [18], 0.00406 µM (active); in test [19] it was 0.225 µM (active); at Mu-type opioid receptor, 30.9 µM (inactive); in test [20], > 32 µM (inactive).

These data come from ChEMBL document CHEMBL1201862, “PubChem BioAssay data set” (2004).
